Data published in patent publication US20100092453A1, “Method of producing porous microparticles” (priority 2006, published 2010).

Columns and labels:
[1] = In vitro dry powder inhaler deposition, Andersen Cascade Impactor
Procedure: The pulmonary deposition of the dry powders was investigated using an Andersen Cascade Impactor (ACI) (1 ACFM Eight Stage Non-Viable Cascade Impactor, Graseby Andersen, Atlanta, Ga.). […] Size 3 hard gelatin capsules (Farillon Ltd., U.K.) were filled to approximately 50% with the dry powder (approximately 25 mg of powder). […] The amount of powder deposited on each stage of the impactor was determined by weight, UV analysis or HPLC analysis.

[2] = Suspension sedimentation analysis (water/Tween 80); type: physicochemical; conditions: water/Tween 80 (96:4 v/v)
Procedure: Sedimentation analysis was carried out on suspensions of bendroflumethiazide (BFMT) and sulfadimidine. 25 ml suspensions were prepared by mixing water and Tween 80 (96:4 v/v) with 150 mg of the drug powder. The suspensions were transferred to 25 ml graduated cylinders, mixed thoroughly and their sedimentation observed over time.

[3] = Density measurements (bulk, tap, Carr's compressibility index); type: physicochemical
Procedure: Dublin 12) with a funnel. The weight of the powder required to fill the 1 ml graduated syringe was recorded to calculate bρ. […] The resultant volume was recorded [NT]ρ. Each measurement was performed in triplicate. The Carr's compressibility index of some of the systems was calculated from the following equation: compressibility index(%)=[(tap density-bulk density)/tap density]×100 Lower values of the index are desirable as they indicate better flow.

[4] = Suspension stability of MDI systems in HFA-134a; type: physicochemical; conditions: BFMT in HFA-134a
Procedure: In order to prepare metered dose inhalers, 20 mg of powder was weighed into glass vials. Afterwards a 25 μl metering valve (Bespak, UK) was crimped onto the glass vial and the liquid propellant HFA-134a was added through the nozzle. The final weight of each MDI (without the container and metering valve) was 10 g. The last two steps were performed using a Pamasol P 2016 aerosol filling station (Pamasol Willi Mader AG, Pfäffikon, Switzerland). Prepared MDIs were homogenised in a Bransonic 220 ultrasonic bath (UK) for 1 min.

SMILES: Cc1cc(C)nc(NS(=O)(=O)c2ccc(N)cc2)n1 [Micronised sulfadimidine, sulfadimidine]
- mass median aerodynamic diameter (MMAD) [1]: 14.4±4.9 μm
- time to completely settle in suspension [2]: ≤ 30 min
- compressibility index ([3]; Carr's index from tap and bulk density): 50.3%

SMILES: NS(=O)(=O)c1cc2c(cc1C(F)(F)F)NC(Cc1ccccc1)NS2(=O)=O (stereo not shown) [raw BFMT, bendroflumethiazide]
- sedimentation of powder particles in suspension (observation) ([2]; observed up to four hours): completely settle in a matter of seconds
- bulk density [3]: 0.29 g/mL
- tap density [3]: 0.58 g/mL
- sedimentation in MDI after 4 hours ([4]; 4 hours): noticeable sedimentation
- sedimentation in MDI after seven days ([4]; 7 days): completely settled

SMILES: O=C(O)c1cc(=O)c2c(OCC(O)COc3cccc4oc(C(=O)O)cc(=O)c34)cccc2o1 [sodium cromoglycate]
- bulk density [3]: 0.341 ± 0.024 g/mL
- tap density [3]: 0.661 ± 0.023 g/mL
